# Source: patent publication US9549558B2, “Herbicidal azines” (BASF SE, priority 2012, dated 2017)
# Experiments:
# Format in all cases: in vivo
# [1] = tested on: AMARE (Amaranthus retroflexus); experiment: greenhouse pre-emergence herbicidal test
# Text: (§1) The seeds of the test plants were sown separately for each species. For the pre-emergence treatment, the active ingredients, which had been suspended or emulsified in water, were applied directly after sowing by means of finely distributing nozzles. The containers were irrigated gently to promote germination and growth and subsequently covered with transparent plastic hoods until the plants had rooted. This cover caused uniform germination of the test plants, unless this had been impaired by the active ingredients. Depending on the species, the plants were kept at 10-25° C. or 20-35° C., respectively. The test period extended over 2 to 4 weeks. During this time, the plants were tended, and their response to the individual treatments was evaluated. […] A moderate herbicidal activity is given at values of at least 60, a good herbicidal activity is given at values of at least 70, and a very good herbicidal activity is given at values of at least 85. The plants used in the greenhouse experiments were of the following species: [table]
# [2] = tested on: AMARE (Amaranthus retroflexus); experiment: greenhouse post-emergence herbicidal test; conditions: 0.031 kg/ha
# Text: (§2) The culture containers used were plastic flowerpots containing loamy sand with approximately 3.0% of humus as the substrate. The seeds of the test plants were sown separately for each species.
# For the post-emergence treatment, the test plants were first grown to a height of 3 to 15 cm, depending on the plant habit, and only then treated with the active ingredients which had been suspended or emulsified in water. For this purpose, the test plants were either sown directly and grown in the same containers, or they were first grown separately as seedlings and transplanted into the test containers a few days prior to treatment.
# (§3) Depending on the species, the plants were kept at 10-25° C. or 20-35° C., respectively.
# (§4) The test period extended over 2 to 4 weeks. During this time, the plants were tended, and their response to the individual treatments was evaluated.
# (§5) Evaluation was carried out using a scale from 0 to 100. 100 means no emergence of the plants, or complete destruction of at least the aerial moieties, and 0 means no damage, or normal course of growth. A moderate herbicidal activity is given at values of at least 60, a good herbicidal activity is given at values of at least 70, and a very good herbicidal activity is given at values of at least 85.
# (§6) The plants used in the greenhouse experiments were of the following species: […]
# [3] = tested on: CAPBP (Capsella bursa-pastoris); experiment: greenhouse pre-emergence herbicidal test; conditions: 0.125 kg/ha, CAPBP
# Text: as §2
# (§7) For the pre-emergence treatment, the active ingredients, which had been suspended or emulsified in water, were applied directly after sowing by means of finely distributing nozzles. The containers were irrigated gently to promote germination and growth and subsequently covered with transparent plastic hoods until the plants had rooted. This cover caused uniform germination of the test plants, unless this had been impaired by the active ingredients.
# as §3, §4, §5, §6
# STEME (Stellaria media) = experiment: greenhouse pre-emergence herbicidal test
# Text: as §2, §7, §3, §4, §5, §6
# [4] = tested on: ABUTH (Abutilon theophrasti); experiment: greenhouse pre-emergence herbicidal test
# Text: as §1
# [5] = tested on: ECHCG (Echinocloa crus-galli); experiment: greenhouse pre-emergence herbicidal test
# Text: as §2, §7, §3, §4, §5, §6
compound,measurement,setting,value
CC(C#N)c1nc(N)nc(Nc2c(F)c(F)c(F)c(F)c2F)n1 (centres unmarked) [Example 5],herbicidal activity,[1]; 0.125 kg/ha,very good (a very good herbicidal activity is given at values of at least 85)
CC(C)(F)c1nc(N)nc(Nc2c(F)cccc2Br)n1 [Example 31],herbicidal activity,[2],very good (a very good herbicidal activity is given at values of at least 85)
CC(C)(F)c1nc(N)nc(Nc2c(Br)cc(F)c(F)c2F)n1 [Example 34],herbicidal activity,[3],very good (a very good herbicidal activity is given at values of at least 85)
same,herbicidal activity,STEME (Stellaria media); 0.125 kg/ha,very good (a very good herbicidal activity is given at values of at least 85)
Cc1cccc(F)c1Nc1nc(N)nc(C(C)(C)F)n1 [Example 41],herbicidal activity,[1]; 0.031 kg/ha,good (a good herbicidal activity is given at values of at least 70)
COc1cccc(F)c1Nc1nc(N)nc(C(C)(C)F)n1 [Example 42],herbicidal activity,[1]; 0.0625 kg/ha,very good (a very good herbicidal activity is given at values of at least 85)
COc1ccc(F)c(Nc2nc(N)nc(C(C)(C)F)n2)c1F [Example 43],herbicidal activity,[2],good (a good herbicidal activity is given at values of at least 70)
CCOc1ccc(F)c(Nc2nc(N)nc(C(C)(C)F)n2)c1F [Example 44],herbicidal activity,[4]; 0.125 kg/ha,very good (a very good herbicidal activity is given at values of at least 85)
same,herbicidal activity,[1]; 0.125 kg/ha,very good (a very good herbicidal activity is given at values of at least 85)
COc1cccc(OC)c1Nc1nc(N)nc(C(C)(C)F)n1 [Example 47],herbicidal activity,[1]; 0.125 kg/ha,very good (a very good herbicidal activity is given at values of at least 85)
CCCC(F)(CC)c1nc(N)nc(Nc2c(F)c(F)c(F)c(F)c2F)n1 (centres unmarked) [Example 50],herbicidal activity,[3],very good (a very good herbicidal activity is given at values of at least 85)
same,herbicidal activity,STEME (Stellaria media); 0.125 kg/ha,very good (a very good herbicidal activity is given at values of at least 85)
CC(C)c1nc(N)nc(Nc2c(F)cccc2F)n1 [Example 66],herbicidal activity,[1]; 62.5 g/ha,very good (a very good herbicidal activity is given at values of at least 85)
CC(C)c1nc(N)nc(Nc2c(F)ccc(Cl)c2F)n1 [Example 67],herbicidal activity,[4]; 125 g/ha,good (a good herbicidal activity is given at values of at least 70)
same,herbicidal activity,[1]; 125 g/ha,very good (a very good herbicidal activity is given at values of at least 85)
Nc1nc(CC(F)(F)F)nc(Nc2c(F)c(F)c(F)c(F)c2F)n1 [Example 72],herbicidal activity,[4]; 125 g/ha,very good (a very good herbicidal activity is given at values of at least 85)
same,herbicidal activity,[1]; 125 g/ha,very good (a very good herbicidal activity is given at values of at least 85)
Nc1nc(Nc2c(F)c(F)c(F)c(F)c2F)nc(C(F)F)n1 [Example 121],herbicidal activity,[4]; 250 g/ha,very good (a very good herbicidal activity is given at values of at least 85)
same,herbicidal activity,[1]; 250 g/ha,very good (a very good herbicidal activity is given at values of at least 85)
Nc1nc(Nc2c(F)ccc(F)c2F)nc(C(F)F)n1 [Example 123],herbicidal activity,[4]; 250 g/ha,good (a good herbicidal activity is given at values of at least 70)
same,herbicidal activity,[1]; 250 g/ha,very good (a very good herbicidal activity is given at values of at least 85)
same,herbicidal activity,[5]; 250 g/ha,good (a good herbicidal activity is given at values of at least 70)
CC=C(C)c1nc(N)nc(Nc2c(F)cccc2F)n1 [Example 124],herbicidal activity,[4]; 1000 g/ha,very good (a very good herbicidal activity is given at values of at least 85)
same,herbicidal activity,[1]; 1000 g/ha,very good (a very good herbicidal activity is given at values of at least 85)
same,herbicidal activity,[5]; 1000 g/ha,very good (a very good herbicidal activity is given at values of at least 85)
CC(C)(C)c1nc(N)nc(Nc2c(F)cccc2C#N)n1 [Example 135],herbicidal activity,[4]; 500 g/ha,very good (a very good herbicidal activity is given at values of at least 85)
same,herbicidal activity,[1]; 500 g/ha,very good (a very good herbicidal activity is given at values of at least 85)
same,herbicidal activity,[5]; 500 g/ha,very good (a very good herbicidal activity is given at values of at least 85)
N#Cc1cccc(F)c1Nc1nc(N)nc(C(F)F)n1 [Example 149],herbicidal activity,STEME (Stellaria media); 250 g/ha,good (a good herbicidal activity is given at values of at least 70)
CC(F)c1nc(N)nc(Nc2c(F)c(F)c(Br)c(F)c2F)n1 (centres unmarked) [Example 180],herbicidal activity,[4]; 250 g/ha,very good (a very good herbicidal activity is given at values of at least 85)
same,herbicidal activity,[1]; 250 g/ha,very good (a very good herbicidal activity is given at values of at least 85)
CC(C)(F)c1nc(N)nc(Nc2c(F)ccc([N+](=O)[O-])c2F)n1 [Example 189],herbicidal activity,[4]; 507 g/ha,very good (a very good herbicidal activity is given at values of at least 85)
same,herbicidal activity,[1]; 507 g/ha,very good (a very good herbicidal activity is given at values of at least 85)
same,herbicidal activity,[5]; 507 g/ha,very good (a very good herbicidal activity is given at values of at least 85)
Cc1cc(C)cc(Oc2cccc(F)c2Nc2nc(N)nc(C(C)(C)F)n2)c1 [Example 191],herbicidal activity,[4]; 1000 g/ha,very good (a very good herbicidal activity is given at values of at least 85)
same,herbicidal activity,[1]; 1000 g/ha,very good (a very good herbicidal activity is given at values of at least 85)
same,herbicidal activity,[5]; 1000 g/ha,very good (a very good herbicidal activity is given at values of at least 85)
CCC(C)c1nc(N)nc(Nc2c(F)c(F)cc(F)c2F)n1 (centres unmarked) [Example 193],herbicidal activity,[4]; 500 g/ha,very good (a very good herbicidal activity is given at values of at least 85)
same,herbicidal activity,[1]; 500 g/ha,very good (a very good herbicidal activity is given at values of at least 85)
same,herbicidal activity,[5]; 500 g/ha,very good (a very good herbicidal activity is given at values of at least 85)
CCC(C)(Cl)c1nc(N)nc(Nc2c(F)c(F)c(Br)c(F)c2F)n1 (centres unmarked) [Example 195],herbicidal activity,[4]; 500 g/ha,good (a good herbicidal activity is given at values of at least 70)
same,herbicidal activity,[1]; 500 g/ha,very good (a very good herbicidal activity is given at values of at least 85)
same,herbicidal activity,[5]; 500 g/ha,good (a good herbicidal activity is given at values of at least 70)
Nc1nc(CF)nc(Nc2c(F)c(F)cc(F)c2F)n1 [Example 198],herbicidal activity,[1]; 119 g/ha,very good (a very good herbicidal activity is given at values of at least 85)
CC=C(C)c1nc(N)nc(Nc2c(F)c(F)cc(F)c2F)n1 [Example 206],herbicidal activity,[1]; 500 g/ha,very good (a very good herbicidal activity is given at values of at least 85)
CCC(C#N)(CC)c1nc(N)nc(Nc2c(F)c(F)cc(F)c2F)n1 [Example 219],herbicidal activity,[4]; 250 g/ha,very good (a very good herbicidal activity is given at values of at least 85)
same,herbicidal activity,[1]; 250 g/ha,very good (a very good herbicidal activity is given at values of at least 85)
COC(C)c1nc(N)nc(Nc2c(F)ccc(F)c2F)n1 (centres unmarked) [Example 228],herbicidal activity,[4]; 500 g/ha,very good (a very good herbicidal activity is given at values of at least 85)
same,herbicidal activity,[1]; 500 g/ha,very good (a very good herbicidal activity is given at values of at least 85)
Nc1nc(C2CCCC2)nc(N(C(=O)C2CCCC2)c2c(F)ccc(F)c2F)n1 [Example 302],herbicidal activity,[4]; 1000 g/ha,good (a good herbicidal activity is given at values of at least 70)
same,herbicidal activity,[1]; 1000 g/ha,very good (a very good herbicidal activity is given at values of at least 85)
same,herbicidal activity,[5]; 1000 g/ha,very good (a very good herbicidal activity is given at values of at least 85)
CCN(c1nc(N)nc(C(C)(C)F)n1)c1c(F)c(F)c(F)c(F)c1F [Example 308],herbicidal activity,[1]; 125 g/ha,very good (a very good herbicidal activity is given at values of at least 85)
